Assay results published in patent US9469674B2 (HAINAN UNIVERSITY, dated 2016).
Several values for one entry are separate records, joined by “and”; a condition that tells them apart may be missing. Identical values can stand only once. Entries after “also recorded” stand apart in the source; their conditions may differ. Like-named read-outs stand apart in the source and are kept apart here. Where a SMILES comes first, the peptide text is derived from it. Bridges are numbered along the chain shown (N, C = ends).

Legend:
α3β2 nAChR = α3β2 nAChR (Rattus norvegicus, UniProt P04757+P12390); test: cell-based; format: cell-based
α6/α3β4 nAChR = α6/α3β4 nAChR (Rattus norvegicus, UniProt P04757+P12392+P43143); test: cell-based; format: cell-based
α3β4 nAChR = α3β4 nAChR (Rattus norvegicus, UniProt P04757+P12392); test: cell-based; format: cell-based
α6/α3β2β3 nAChR = α6/α3β2β3 nAChR (Rattus norvegicus, UniProt P04757+P12390+P43143); test: cell-based; format: cell-based
α7 nAChR = α7 nAChR (Rattus norvegicus, UniProt Q05941); test: cell-based; format: cell-based
α9α10 nAChR = α9α10 nAChR (Rattus norvegicus, UniProt P43144+Q9JLB5); test: cell-based
α2β2 nAChR = α2β2 nAChR (Rattus norvegicus, UniProt P12389+P12390); test: cell-based; format: cell-based
α4β2 nAChR = α4β2 nAChR (Rattus norvegicus, UniProt P09483+P12390); test: cell-based
α4β4 nAChR = α4β4 nAChR (Rattus norvegicus, UniProt P09483+P12392); test: cell-based; format: cell-based
human α3β2 nAChR = human α3β2 nAChR (Homo sapiens, UniProt P17787+P32297); format: cell-based
human α6/α3β2β3 nAChR = human α6/α3β2β3 nAChR (Homo sapiens, UniProt P17787+P32297+Q15825); test: cell-based; format: cell-based
α3β2[F119Q] nAChR mutant = α3β2[F119Q] nAChR mutant (Rattus norvegicus, UniProt P04757+P12390, F143Q); format: cell-based
α3β2[T59K] nAChR mutant = α3β2[T59K] nAChR mutant (Rattus norvegicus, UniProt P04757+P12390, T83K); format: cell-based
α3β2[T59L] nAChR mutant = α3β2[T59L] nAChR mutant (Rattus norvegicus, UniProt P04757+P12390, T83L); format: cell-based
α3β2[Q34A] nAChR mutant = α3β2[Q34A] nAChR mutant (Rattus norvegicus, UniProt P04757+P12390, Q58A); format: cell-based
α3β2[K79A] nAChR mutant = α3β2[K79A] nAChR mutant (Rattus norvegicus, UniProt P04757+P12390, K103A); format: cell-based
α3β2[T59I] nAChR mutant = α3β2[T59I] nAChR mutant (Rattus norvegicus, UniProt P04757+P12390, T83I); format: cell-based
α3β2[V111I] nAChR mutant = α3β2[V111I] nAChR mutant (Rattus norvegicus, UniProt P04757+P12390, V135I); format: cell-based
[1] = tested on: Chronic Constriction Injury model of ischiadic nerve (neuralgia); details: rat, in vivo
[2] = tested on: hot-plate pain threshold in Kunming mice; details: mouse, in vivo
other nAChRs subtypes = format: cell-based; details: read-out: IC50 on other nAChRs subtypes (no blocking activity)
α2β4 nAChR = α2β4 nAChR (Rattus norvegicus, UniProt P12389+P12392); test: cell-based; format: cell-based
[3] = target: α3β4 acetylcholine receptor; details: read-out: half-blocking dose IC50; cited from earlier work
[4] = target: α3β2 acetylcholine receptor (Homo sapiens, UniProt P17787+P32297); details: read-out: half-blocking dose IC50; cited from earlier work
[5] = target: α7 acetylcholine receptor (Homo sapiens, UniProt P36544); details: read-out: half-blocking dose IC50; cited from earlier work
α7/5HT3 chimera = details: read-out: half-blocking dose IC50; cited from earlier work
[6] = target: α9α10 acetylcholine receptor (Homo sapiens, UniProt Q9GZZ6+Q9UGM1); details: read-out: half-blocking dose IC50; cited from earlier work
[7] = read-out: IC50 (half-blocking dose)

Chain of α2β2 nAChR (P12389 28-511 limits assumed): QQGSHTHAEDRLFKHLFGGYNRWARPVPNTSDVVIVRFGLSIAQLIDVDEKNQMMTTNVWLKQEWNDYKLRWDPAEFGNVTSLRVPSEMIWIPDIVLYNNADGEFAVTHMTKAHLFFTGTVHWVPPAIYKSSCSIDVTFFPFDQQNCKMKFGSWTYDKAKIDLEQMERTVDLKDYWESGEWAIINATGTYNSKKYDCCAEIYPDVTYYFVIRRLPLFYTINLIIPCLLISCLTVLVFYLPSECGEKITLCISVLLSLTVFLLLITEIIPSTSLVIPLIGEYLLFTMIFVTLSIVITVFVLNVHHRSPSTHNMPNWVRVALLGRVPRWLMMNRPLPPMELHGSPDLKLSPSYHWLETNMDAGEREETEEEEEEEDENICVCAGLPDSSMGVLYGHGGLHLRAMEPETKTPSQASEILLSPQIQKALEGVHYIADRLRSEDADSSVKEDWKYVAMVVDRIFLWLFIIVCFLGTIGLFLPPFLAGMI
Chain of α2β2 nAChR (P12390 25-500 limits assumed): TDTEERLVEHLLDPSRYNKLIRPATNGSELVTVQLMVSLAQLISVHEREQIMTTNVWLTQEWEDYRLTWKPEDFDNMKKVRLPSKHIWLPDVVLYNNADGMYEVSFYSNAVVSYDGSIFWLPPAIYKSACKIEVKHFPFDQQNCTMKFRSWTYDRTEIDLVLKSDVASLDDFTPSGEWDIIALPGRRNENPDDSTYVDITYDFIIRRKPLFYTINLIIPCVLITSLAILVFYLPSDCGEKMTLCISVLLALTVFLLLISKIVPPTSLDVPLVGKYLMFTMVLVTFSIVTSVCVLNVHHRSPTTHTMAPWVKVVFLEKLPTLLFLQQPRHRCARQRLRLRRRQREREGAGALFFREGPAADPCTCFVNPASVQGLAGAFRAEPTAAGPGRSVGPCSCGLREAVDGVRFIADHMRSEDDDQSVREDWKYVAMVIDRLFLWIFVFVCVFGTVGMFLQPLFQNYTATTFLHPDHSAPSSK
Chain of α7 nAChR (Q05941 23-502 limits assumed): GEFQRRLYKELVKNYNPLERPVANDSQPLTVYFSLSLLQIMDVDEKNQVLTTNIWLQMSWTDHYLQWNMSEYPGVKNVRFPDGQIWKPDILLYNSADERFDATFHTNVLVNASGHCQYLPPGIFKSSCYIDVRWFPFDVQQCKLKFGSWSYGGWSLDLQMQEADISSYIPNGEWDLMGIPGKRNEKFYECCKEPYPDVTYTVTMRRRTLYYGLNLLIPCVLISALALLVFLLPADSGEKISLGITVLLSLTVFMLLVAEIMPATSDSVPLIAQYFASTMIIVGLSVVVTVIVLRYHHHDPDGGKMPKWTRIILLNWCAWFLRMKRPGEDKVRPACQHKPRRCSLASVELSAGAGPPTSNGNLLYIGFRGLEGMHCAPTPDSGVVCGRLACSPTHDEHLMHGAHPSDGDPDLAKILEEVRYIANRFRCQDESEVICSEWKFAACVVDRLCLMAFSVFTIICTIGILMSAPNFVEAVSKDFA
Chain of α4β4 nAChR (P09483 31-630 limits assumed): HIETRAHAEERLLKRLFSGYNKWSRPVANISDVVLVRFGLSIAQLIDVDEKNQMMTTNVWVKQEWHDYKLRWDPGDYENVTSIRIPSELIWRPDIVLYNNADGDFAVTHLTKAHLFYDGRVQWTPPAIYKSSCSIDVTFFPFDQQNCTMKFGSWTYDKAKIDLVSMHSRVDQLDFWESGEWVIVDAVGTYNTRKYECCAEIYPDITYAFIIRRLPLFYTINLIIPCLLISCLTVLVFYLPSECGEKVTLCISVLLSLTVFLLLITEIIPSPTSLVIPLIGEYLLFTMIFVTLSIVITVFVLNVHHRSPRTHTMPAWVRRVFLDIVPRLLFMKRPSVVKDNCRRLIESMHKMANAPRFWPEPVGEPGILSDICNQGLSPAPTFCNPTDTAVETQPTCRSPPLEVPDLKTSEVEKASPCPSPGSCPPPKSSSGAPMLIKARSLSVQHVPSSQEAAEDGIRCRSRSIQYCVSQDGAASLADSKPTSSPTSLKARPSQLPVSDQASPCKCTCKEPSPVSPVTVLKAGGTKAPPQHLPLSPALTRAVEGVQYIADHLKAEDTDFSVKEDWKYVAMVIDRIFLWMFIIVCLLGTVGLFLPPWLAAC
Chain of α4β4 nAChR (P12392 21-495 limits assumed): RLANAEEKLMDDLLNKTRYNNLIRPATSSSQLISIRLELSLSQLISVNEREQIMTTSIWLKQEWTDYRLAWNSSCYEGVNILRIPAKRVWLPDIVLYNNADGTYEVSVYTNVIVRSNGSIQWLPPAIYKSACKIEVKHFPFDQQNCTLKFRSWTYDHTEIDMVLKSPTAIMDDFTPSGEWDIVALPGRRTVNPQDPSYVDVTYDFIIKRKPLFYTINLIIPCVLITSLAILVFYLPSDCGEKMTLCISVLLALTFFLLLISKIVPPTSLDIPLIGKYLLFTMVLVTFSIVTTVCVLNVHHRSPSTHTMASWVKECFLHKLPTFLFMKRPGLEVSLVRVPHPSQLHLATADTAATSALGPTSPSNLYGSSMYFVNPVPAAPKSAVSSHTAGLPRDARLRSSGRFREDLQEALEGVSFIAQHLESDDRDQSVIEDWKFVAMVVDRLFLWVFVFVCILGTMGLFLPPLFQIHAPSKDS
Chain of human α6/α3β2β3 nAChR (P17787 whole entry, looked up): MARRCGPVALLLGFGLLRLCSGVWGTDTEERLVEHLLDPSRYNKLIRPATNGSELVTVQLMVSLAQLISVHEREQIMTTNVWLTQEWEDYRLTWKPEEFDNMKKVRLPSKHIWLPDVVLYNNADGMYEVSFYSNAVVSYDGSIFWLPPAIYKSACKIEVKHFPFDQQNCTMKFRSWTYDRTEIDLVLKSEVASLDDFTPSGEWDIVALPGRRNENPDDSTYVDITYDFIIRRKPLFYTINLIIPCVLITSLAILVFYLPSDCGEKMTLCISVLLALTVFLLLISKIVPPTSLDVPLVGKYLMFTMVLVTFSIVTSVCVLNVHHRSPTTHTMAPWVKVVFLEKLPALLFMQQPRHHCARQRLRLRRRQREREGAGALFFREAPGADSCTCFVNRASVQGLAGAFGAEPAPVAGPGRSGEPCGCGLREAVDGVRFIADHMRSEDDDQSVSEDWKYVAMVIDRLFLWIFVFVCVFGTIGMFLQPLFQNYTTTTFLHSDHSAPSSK
Chain of human α6/α3β2β3 nAChR (P32297 whole entry, looked up): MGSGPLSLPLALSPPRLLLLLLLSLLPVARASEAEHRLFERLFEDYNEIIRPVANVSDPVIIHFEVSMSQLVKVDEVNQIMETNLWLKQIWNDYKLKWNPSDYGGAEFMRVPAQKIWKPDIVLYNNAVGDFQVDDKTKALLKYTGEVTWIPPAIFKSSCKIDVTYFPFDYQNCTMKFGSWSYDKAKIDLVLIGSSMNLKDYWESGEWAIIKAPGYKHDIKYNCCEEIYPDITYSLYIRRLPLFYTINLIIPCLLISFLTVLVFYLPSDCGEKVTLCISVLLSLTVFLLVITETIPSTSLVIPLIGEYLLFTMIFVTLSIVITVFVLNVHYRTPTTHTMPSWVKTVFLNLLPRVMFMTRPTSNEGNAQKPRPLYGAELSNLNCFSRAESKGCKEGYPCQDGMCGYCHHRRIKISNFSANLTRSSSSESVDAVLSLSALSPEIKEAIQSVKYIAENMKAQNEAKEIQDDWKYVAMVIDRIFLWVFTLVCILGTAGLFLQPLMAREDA
Chain of human α6/α3β2β3 nAChR (Q15825 whole entry, looked up): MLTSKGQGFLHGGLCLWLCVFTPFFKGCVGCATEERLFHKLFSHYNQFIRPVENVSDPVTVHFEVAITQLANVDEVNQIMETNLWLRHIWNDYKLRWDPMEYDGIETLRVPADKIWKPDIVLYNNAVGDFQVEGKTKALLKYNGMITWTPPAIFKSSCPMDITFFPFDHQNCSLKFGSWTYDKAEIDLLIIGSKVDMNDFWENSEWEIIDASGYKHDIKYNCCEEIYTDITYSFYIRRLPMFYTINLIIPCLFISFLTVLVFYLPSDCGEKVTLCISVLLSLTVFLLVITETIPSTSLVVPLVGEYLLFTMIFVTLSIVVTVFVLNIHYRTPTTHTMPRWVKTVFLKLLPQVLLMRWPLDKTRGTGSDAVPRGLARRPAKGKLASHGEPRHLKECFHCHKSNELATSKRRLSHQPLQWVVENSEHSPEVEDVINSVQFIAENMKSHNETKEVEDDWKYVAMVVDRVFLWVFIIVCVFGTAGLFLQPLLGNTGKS
Chain of α3β2 nAChR (P04757 26-499 limits assumed): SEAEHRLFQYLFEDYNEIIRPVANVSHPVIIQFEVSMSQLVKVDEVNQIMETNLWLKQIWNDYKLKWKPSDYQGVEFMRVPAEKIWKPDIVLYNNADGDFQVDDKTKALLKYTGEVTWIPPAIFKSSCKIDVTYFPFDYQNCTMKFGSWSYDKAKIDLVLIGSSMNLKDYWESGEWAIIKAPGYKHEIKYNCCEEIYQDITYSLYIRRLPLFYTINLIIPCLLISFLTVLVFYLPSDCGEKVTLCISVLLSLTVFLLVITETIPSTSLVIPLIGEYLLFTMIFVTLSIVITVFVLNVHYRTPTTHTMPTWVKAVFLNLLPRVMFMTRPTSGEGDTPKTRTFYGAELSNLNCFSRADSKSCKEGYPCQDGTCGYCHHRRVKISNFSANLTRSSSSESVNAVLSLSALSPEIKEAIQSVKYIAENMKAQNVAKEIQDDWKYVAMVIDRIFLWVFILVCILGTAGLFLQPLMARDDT
Chain of α3β2 nAChR (P12390 25-500 limits assumed): as the sequence (P12390 25-500 limits assumed) above

## CC[C@H](C)[C@@H]1NC(=O)[C@H](CCC(=O)O)NC(=O)[C@@H]2CCCN2C(=O)[C@H](Cc2cnc[nH]2)NC(=O)[C@H](CC(=O)O)NC(=O)[C@H](C(C)C)NC(=O)[C@H](CC(N)=O)NC(=O)[C@@H]2CSSC[C@H](NC(=O)CN)C(=O)N[C@@H](CSSC[C@@H](C(N)=O)NC1=O)C(=O)N[C@@H](CO)C(=O)N[C@@H](Cc1cnc[nH]1)C(=O)N1CCC[C@H]1C(=O)N[C@@H](C)C(=O)N2 [LvIA/LvD21]
α3β2 nAChR
  % of recovered current within elution time: 100%
  Hill slope of dose-response curve: 1.17 (0.88-1.46)
  Hill slope of dose-response curves: 1.17(0.79-1.54)
  blocking activity to α3β2 times higher than to α6/α3β2β3: ~100 times
  blocking of ACh-gated current: specifically blocks; also recorded: completely blocks
  current blocked: about 50%
  time to complete elution after block: ≤ 2 min
α6/α3β4 nAChR
  Hill slope of dose-response curve: 0.94 (0.66-1.22)
α3β4 nAChR
  Hill slope of dose-response curve: 1.14 (0.72-1.55)
α6/α3β2β3 nAChR
  Hill slope of dose-response curve: 0.60(0.48-0.72)
α7 nAChR
  Hill slope of dose-response curve: 0.65 (0.43-0.87)
α9α10 nAChR
  IC50: > 10 µM
α9α10 nAChR; [7]
  IC50: > 10 µM
α2β2 nAChR
  IC50: > 10 µM
  blocking of ACh-gated current: totally does not block; also recorded: no blocking activity
α2β2 nAChR; [7]
  IC50: > 10 µM
α4β2 nAChR
  IC50: > 10 µM
α4β2 nAChR; [7]
  IC50: > 10 µM
α4β4 nAChR
  IC50: > 10 µM
α4β4 nAChR; [7]
  IC50: > 10 µM
Human α3β2 nAChR
  Hill slope of dose-response curve: 0.81 (0.44-1.18)
  blocking activity to α3β2 times higher than to α6/α3β2β3: ~305 times
Human α6/α3β2β3 nAChR
  Hill slope of dose-response curve: 0.85 (0.55-1.15)
  IC50: 5.34 µM
α3β2[F119Q] nAChR mutant
  Elution time after blocking: 12 min and 10 to 12 min
  Hill slope of dose-response curves: 1.12(0.79-1.44)
  blocking activity times higher than that to wild type α3β2 nAChR: 25 times
  current blocked: blocked all current
α3β2[T59K] nAChR mutant
  Elution time after blocking: 20 min
  Hill slope of dose-response curves: 0.80(0.47-1.13)
  blocking activity times higher than that to wild type α3β2 nAChR: 15 times
  current blocked: blocked all current
α3β2[T59L] nAChR mutant
  Elution time after blocking: 5 to 8 min
  Hill slope of dose-response curves: 1.07(0.77-1.37)
  blocking activity times higher than that to wild type α3β2 nAChR: 7 times
α3β2[Q34A] nAChR mutant
  Elution time after blocking: 2 to 3 min
  Hill slope of dose-response curves: 0.90(0.22-1.58)
α3β2[K79A] nAChR mutant
  Elution time after blocking: 1 min
  Hill slope of dose-response curves: 0.86(0.43-1.30)
α3β2[T59I] nAChR mutant
  Elution time after blocking: 2 min
  Hill slope of dose-response curves: 1.15(0.43-1.86)
α3β2[V111I] nAChR mutant
  Elution time after blocking: 1 min
  Hill slope of dose-response curves: 1.31(0.66-1.96)
  current blocked: does not block at all; also recorded: totally did not block
[1]
  analgesic effect on neuralgia: potent analgesic effects
  analgesic effect times higher than that of morphine, same weight and dose: 823-1176 times
  average analgesic value (Mechanical Threshold, % of basal): 160%
  mechanical threshold after withdrawal: significantly higher than that of morphine group
[1]; ip
  analgesic value: far higher than morphine
  analgesic value in some cases (Mechanical Threshold, % of basal): up to 200%
  average analgesic value (Mechanical Threshold, % of basal): up to 200%
[2]
  analgesic effect times higher than that of morphine, same weight and dosage: 764-882 times
  pain threshold: 30 s
  pain threshold in comparison with the pain threshold of morphine: 1.3-1.5 times and 1.3 times

## CC(C)C[C@@H]1NC(=O)[C@H](CC(=O)O)NC(=O)[C@@H]2CCCN2C(=O)[C@H](Cc2c[nH]cn2)NC(=O)[C@H](CCCCN)NC(=O)[C@H](CC(N)=O)NC(=O)[C@H](CCCNC(=N)N)NC(=O)[C@@H]2CSSC[C@H](NC(=O)CN)C(=O)N[C@@H](CSSC[C@@H](C(N)=O)NC1=O)C(=O)N[C@@H](CO)C(=O)N[C@@H](CC(=O)O)C(=O)N1CCC[C@H]1C(=O)N1CCC[C@H]1C(=O)N2 [TxIB] (H-GCCSDPPCRNKHPDLC-NH2; disulfide 2-8, 3-16)
α3β2 nAChR
  blocking of ACh-gated current: totally does not block; also recorded: no blocking activity
α6/α3β4 nAChR
  blocking of ACh-gated current: totally does not block; also recorded: no blocking activity
α3β4 nAChR
  blocking of ACh-gated current: totally does not block; also recorded: no blocking activity
α6/α3β2β3 nAChR
  Hill slope of dose-response curve: 0.51 (0.41-0.60)
  Ratio of half-blocking dose (IC50) between TxIB(G) and TxIB: 1
  blocking of ACh-gated current: specifically blocked; also recorded: almost total blocked
Human α6/α3β2β3 nAChR
  blocking activity on human α6/α3β2β3 nAChR: blocking activity similar to those for rat α6/α3β2β3 nAChR
Other nAChRs subtypes
  IC50: > 10 µM

## CC[C@H](C)[C@@H]1NC(=O)[C@@H]2CCCN2C(=O)[C@H](CO)NC(=O)[C@H](CCSC)NC(=O)[C@H](C)NC(=O)[C@H](CO)NC(=O)[C@@H]2CSSC[C@H](NC(=O)CN)C(=O)N[C@@H](CSSC[C@@H](C(N)=O)NC1=O)C(=O)N[C@@H](CO)C(=O)N[C@@H](Cc1c[nH]cn1)C(=O)N1CCC[C@H]1C(=O)N[C@@H](C(C)C)C(=O)N2 [TxIC]
α6/α3β4 nAChR
  Hill slope of dose-response curve: 0.26 (0.73-1.87)
α3β4 nAChR
  Hill slope of dose-response curve: 0.19 (0.66-1.44)
  blocking of ACh-gated current: specifically blocked; also recorded: completely blocked
α7 nAChR
  blocking of ACh-gated current: totally does not block; also recorded: no blocking activity
α2β4 nAChR
  Hill slope of dose-response curve: 0.20 (1.48-2.42)
α4β4 nAChR
  blocking of ACh-gated current: totally does not block; also recorded: no blocking activity
Other nAChRs subtypes
  IC50: > 10 µM

## GCCSDPRCAWR----C* [ImI]
[3]
  IC50: 3.39 µM
[4]
  IC50: 0.041 µM
[5]
  IC50: 0.595 µM
α7/5HT3 chimera
  IC50: 0.217 µM
[6]
  IC50: 2 µM
